The results in this text go back to patent publication US6046331A, “Imidazolones and their use in treating benign prostatic hyperplasia and other disorders” (Synaptic Pharmaceutical Corporation, priority 1998, dated 2000).

The target in one test is T1, human α1b receptor (Homo sapiens, UniProt P35368).
T1 construct: The entire coding region of α1b (1563 bp); expressed in transfected cells; host or cells: LM(tk-) mouse fibroblast line L-α1B, ATCC CR 11139
T1 sequence (P35368 1-520): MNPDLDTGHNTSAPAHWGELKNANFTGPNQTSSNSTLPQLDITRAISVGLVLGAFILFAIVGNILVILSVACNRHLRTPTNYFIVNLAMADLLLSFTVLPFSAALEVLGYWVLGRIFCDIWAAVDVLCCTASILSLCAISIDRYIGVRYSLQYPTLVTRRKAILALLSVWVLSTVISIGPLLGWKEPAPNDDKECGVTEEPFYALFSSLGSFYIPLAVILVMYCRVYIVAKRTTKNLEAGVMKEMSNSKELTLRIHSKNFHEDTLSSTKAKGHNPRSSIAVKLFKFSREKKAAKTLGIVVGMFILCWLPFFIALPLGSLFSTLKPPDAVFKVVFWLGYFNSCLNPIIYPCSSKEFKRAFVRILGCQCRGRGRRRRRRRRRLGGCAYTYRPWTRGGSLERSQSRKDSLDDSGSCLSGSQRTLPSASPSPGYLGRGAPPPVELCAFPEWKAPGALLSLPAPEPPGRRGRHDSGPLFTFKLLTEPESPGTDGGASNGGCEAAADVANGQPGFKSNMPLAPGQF
In words: Radioligand binding ([^3 H]prazosin) at cloned human α1b receptor. The conditions noted are these: LM(tk-) cell membranes, read-out: hα1b Ki. As to the method:
(§1) Binding affinities were measured for selected compounds of the invention at six cloned human α1 and α2 receptor subtypes, as well as at the L-type calcium channel. The protocols for these experiments are given below.
(§2) The activity of compounds at the different human receptors was determined in vitro using cultured cell lines that selectively express the receptor of interest. These cell lines were prepared by transfecting the cloned cDNA or cloned genomic DNA or constructs containing both genomic DNA and cDNA encoding the human α-adrenergic receptors as follows:
α1b Human Adrenergic Receptor: The entire coding region of α1b (1563 bp), including 200 base pairs and 5' untranslated sequence (5' UT) and 600 bp of 3' untranslated sequence (3' UT), was cloned into the EcoRI site of pCEXV-3 eukaryotic expression vector. The construct involved ligating the full-length containing EcoRI brainstem cDNA fragment from λ ZapII into the expression vector. Stable cell lines were selected as described above. The cell line used herein was designated L-α1B and was deposited with the American Type Culture Collection, 12301 Parklawn Drive, Rockville, Md. 20852, U.S.A. under the provisions of the Budapest Treaty for the International Recognition of the Deposit of Microorganisms for the Purposes of Patent Procedure. The cell line L-α1B was accorded ATCC Accession No. CR 11139, on Sep. 29, 1992.
(§3) Radioligand Binding Assays for α1 receptors:
(§4) Transfected cells from culture flasks were scraped into 5 ml of 5 mM Tris-HCl, 5 mM EDTA, pH 7.5, and lysed by sonication. The cell lysates were centrifuged at 1000 rpm for 5 min at 4° C., and the supernatant was centrifuged at 30,000× g for 20 min at 4° C. The pellet was suspended in 50 mM Tris-HCl, 1 mM MgCl2, and 0.1% ascorbic acid at pH 7.5. Binding of the α1 antagonist [^3 H]prazosin (0.5 nM, specific activity 76.2 Ci/mmol) to membrane preparations of LM(tk-) cells was done in a final volume of 0.25 ml and incubated at 37° C. for 20 min. Nonspecific binding was determined in the presence of […] phentolamine. The reaction was stopped by filtration through GF/B filters using a cell harvester. Inhibition experiments, routinely consisting of 7 concentrations of the tested compounds, were analyzed using a non-linear regression curve-fitting computer program to obtain Ki values.
(§5) The compounds described above were assayed using cloned human alpha adrenergic receptors. […] The binding affinities of several compounds are illustrated in the following table.
(§6) Binding affinities of selected compounds of the present invention at cloned human α1d, α1b and α1a receptors. (h=human)

A further test concerns the target T2, human α1a receptor (Homo sapiens, UniProt P35348).
T2 construct: The entire coding region of α1a (1401 bp); expressed in transfected cells; host or cells: LM(tk-) mouse fibroblast line L-α1C (old nomenclature), ATCC CR 11140
T2 sequence (P35348 1-466): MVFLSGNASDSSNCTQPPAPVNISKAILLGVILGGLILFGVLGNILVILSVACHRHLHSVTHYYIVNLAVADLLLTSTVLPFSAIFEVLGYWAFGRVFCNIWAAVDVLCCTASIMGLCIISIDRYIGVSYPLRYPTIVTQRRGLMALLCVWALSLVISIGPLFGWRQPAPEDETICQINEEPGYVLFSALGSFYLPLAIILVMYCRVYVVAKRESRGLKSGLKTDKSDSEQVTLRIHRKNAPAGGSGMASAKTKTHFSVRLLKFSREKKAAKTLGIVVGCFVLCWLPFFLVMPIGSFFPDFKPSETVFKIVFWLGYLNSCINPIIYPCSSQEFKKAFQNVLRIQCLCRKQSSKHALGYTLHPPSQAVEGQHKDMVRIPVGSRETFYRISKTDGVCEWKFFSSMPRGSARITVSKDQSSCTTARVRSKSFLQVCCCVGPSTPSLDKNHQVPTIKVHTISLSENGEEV
In words: Radioligand binding ([^3 H]prazosin) at cloned human α1a receptor. Conditions: LM(tk-) cell membranes, read-out: hα1a Ki. As to the method:
as §1, §2
α1a Human Adrenergic Receptor: The entire coding region of α1a (1401 bp), including 400 base pairs of 5' untranslated sequence (5' UT) and 200 bp of 3' untranslated sequence (3' UT), was cloned into the KpnI site of the polylinker-modified pCEXV-3-derived eukaryotic expression vector, EXJ.RH. The construct involved ligating three partial overlapping fragments: a 5' 0.6 kb HincII genomic clone, a central 1.8 EcoRI hippocampal cDNA clone, and a 3' 0.6Kb PstI genomic clone. The hippocampal cDNA fragment overlaps with the 5' and 3' genomic clones so that the HincII and PstI sites at the 5' and 3' ends of the cDNA clone, respectively, were utilized for ligation. This full-length clone was cloned into the KpnI site of the expression vector, using the 5' and 3' KpnI sites of the fragment, derived from vector (i.e., pBluescript) and 3'-untranslated sequences, respectively. Stable cell lines were selected as described above. The stable cell line expressing the human α1a receptor used herein was designated L-α1C (old nomenclature) and was deposited with the American Type Culture Collection, 12301 Parklawn Drive, Rockville, Md. 20852, U.S.A. under the provisions of the Budapest Treaty for the International Recognition of the Deposit of Microorganisms for the Purposes of Patent Procedure. The cell line expressing the human α1a receptor was accorded Accession No. CR 11140, on Sep. 25, 1992.
as §3, §4, §5, §6

SMILES strings stand for the structures.

The term Ki denotes a measure of affinity in units of concentration, obtained from inhibition or displacement. In the case of `COC(=O)c1[nH]c(=O)n(CCCCCN2CCC(C(=O)OC)(c3ccccc3)CC2)c1-c1ccc(F)c(F)c1` [Compound 1, 1-(5-(4-Methoxycarbonyl-4-phenylpiperidin-1-yl)pent-1-yl)-4-methoxycarbonyl-5-(3,4-difluorophenyl)-2,3-dihydro-2(1H)-imidazolone], the Ki at human α1b receptor is 309 nM; on human α1a receptor, 1.8 nM.

On to `COC(=O)c1[nH]c(=O)n(CCCCCN2CCC(C#N)(c3ccccc3)CC2)c1-c1ccc(F)c(F)c1` [Compound 2, 5-(3,4-Difluorophenyl)-2,3-dihydro-4-methoxycarbonyl-1-(5-(4-cyano-4-phenylpiperidin-1-yl)pent-1-yl)-2(1H)-imidazolone], for which the Ki at human α1b receptor amounted to 347 nM; on human α1a receptor, 4.1 nM.

For the molecule `COC(=O)c1[nH]c(=O)n(CCCCCN2CCC(O)(c3ccccc3)CC2)c1-c1ccc(F)c(F)c1` [Compound 3, 5-(3,4-Difluorophenyl)-2,3-dihydro-4-methoxycarbonyl-1-(5-(4-hydroxy-4-phenylpiperidin-1-yl)pent-1-yl)-2(1H)-imidazolone], the Ki at human α1b receptor is 1580 nM; on human α1a receptor it was 21.1 nM.

With `COC(=O)c1[nH]c(=O)n(CCCCCN2CCN(c3ccccc3C(N)=O)CC2)c1-c1cc(F)c(F)c(F)c1` [Compound 4, 1-(5-(4-(2-Aminocarbonylphenyl)piperazin-1-yl)pent-1-yl)-5-(3,4,5-trifluorophenyl)-2,3-dihydro-4-methoxycarbonyl-2(1H)-imidazolone], the Ki came out at 159 nM on human α1b receptor and 1.5 nM at human α1a receptor.

As for `COC(=O)c1ccccc1N1CCN(CCCCCn2c(-c3cc(F)c(F)c(F)c3)c(C(=O)OC)[nH]c2=O)CC1` [Compound 5, 5-(3,4,5-Trifluorophenyl)-2,3-dihydro-4-methoxycarbonyl-1-(5-(4-(2-methoxycarbonylphenyl)piperazin-1-yl)pent-1-yl)-2(1H)-imidazolone], the Ki at human α1b receptor stood at 11.7 nM; on human α1a receptor, 0.1 nM.

On to `CCOC(=O)c1[nH]c(=O)n(CCCCCN2CCN(c3ccccc3C(N)=O)CC2)c1-c1ccc(F)c(F)c1` [Compound 6, 1-(5-(4-(2-Aminocarbonylphenyl)piperazin-1-yl)pent-1-yl)-4-ethoxycarbonyl-5-(3,4-difluorophenyl)-2,3-dihydro-2(1H)-imidazolone], for which the Ki at human α1b receptor is 110 nM; on human α1a receptor it was 1.4 nM.

For the molecule `COC(=O)c1[nH]c(=O)n(CCCCCN2CCN(c3ccccc3C(N)=O)CC2)c1-c1cc(F)c(F)cc1F` [Compound 7, 1-(5-(4-(2-Aminocarbonylphenyl)piperazin-1-yl)pent-1-yl)-5-(2,4,5-trifluorophenyl)-2,3-dihydro-4-methoxylcarboxy-2(1H)-imidazolone], the Ki at human α1b receptor turned out to be 111 nM; at human α1a receptor, 1.2 nM.

On to `COC(=O)c1[nH]c(=O)n(CCCCCN2CCC(C(=O)OC)(c3ccccc3)CC2)c1Cc1ccc(F)c(F)c1` [Compound 37, 5-(3,4-Difluorobenzyl)-2,3-dihydro-4-methoxycarbonyl-1-(5-(4-methoxycarbonyl-4-phenylpiperidin-1-yl)pent-1-yl)-2(1H) -imidazolone], for which the Ki was found to be 558 nM on human α1b receptor and 4.5 nM on human α1a receptor.
